Drawing on ChEMBL document CHEMBL3112430, “Biological evaluation of new antitumor taxoids: alteration of substitution at the C-7 and C-10 of docetaxel” (2014), this text covers GI50 and RatioGI50 for seven compounds.

Calls of active or inactive are those of the source. The calls are words filed in the database; no cut-off is given here.

Assay type in all cases: functional
In assay [1] the test system is HL-60. The assay can be described thus: Growth inhibition of human HL60 cells by MTT assay.
Assay [2] in a line: Growth inhibition of human U937 cells by MTT assay. The note with it: U-937.
Assay [3] is described as follows: Growth inhibition of human Bel7402 cells by MTT assay. The note with it: Bel-7402. A general note: Formazan colour is commonly taken as a measure of viable cells.
Assay [4] is described as follows: Growth inhibition of human BGC823 cells by MTT assay. The note with it: BGC-823.
The test system of assay [5] is HeLa. The assay can be described thus: Growth inhibition of human HeLa cells by MTT assay.
For assay [6], the system named is DU-145. The assay can be described thus: Growth inhibition of human DU145 cells by MTT assay.
For assay [7], the system named is MOLT-4. The assay can be described thus: Growth inhibition of human MOLT4 cells by MTT assay.
The nature of assay [8]: Growth inhibition of human PANC1 cells by MTT assay. The note with it: PANC-1.
Assay [9] deals with MCF7. The assay can be described thus: Growth inhibition of human MCF7 cells by MTT assay.
In assay [10] the test system is A549. The assay can be described thus: Ratio of taxol GI50 to compound GI50 for human A549 cells.
A short description of assay [11]: Growth inhibition of human SGC7901 cells by MTT assay. The note with it: SGC-7901.
The subject of assay [12] is A549. In words: Growth inhibition of human A549 cells by MTT assay.
A short description of assay [13]: (§1) Growth inhibition of human HT1080 cells by MTT assay. The note with it: HT-1080.
Assay [14] relates to K562. In words: Growth inhibition of human K562 cells by MTT assay.
Assay [15] has as its system Huh-7. The assay can be described thus: Growth inhibition of human HuH7 cells by MTT assay.
For assay [16], the system named is A-431. In words: Growth inhibition of human A431 cells by MTT assay.
Assay [17] concerns HT-1080. The assay is described as §1.

One may read the GI50 as the concentration at which growth is held to half of that of the control. Take `CCOCCO[C@H]1C(=O)[C@]2(C)[C@@H](OCCOCC)C[C@H]3OC[C@@]3(OC(C)=O)[C@H]2[C@H](OC(=O)c2ccccc2)[C@]2(O)C[C@H](OC(=O)[C@H](O)[C@@H](NC(=O)OC(C)(C)C)c3ccccc3)C(C)=C1C2(C)C`: the GI50 in [1] was 63.7 nM; in assay [2], 1.95 nM; in assay [3], 1.56 nM; in assay [4], 816 nM; in assay [5], 2.53 nM; in assay [6], 3.69 nM. Besides, the GI50 in [7] turned out to be 268 nM; in assay [8], 150 nM; in [9] it was 1.19 nM; in assay [11], 2.27 nM; in [12], 1.94 nM; in [13], 2.83 nM. Moreover, the 50% growth inhibitory concentration (GI50) in assay [14] stood at 483 nM; in [15] it was 87.5 nM; in assay [16], 2.27 nM. For the same compound, in assay [10], the RatioGI50 turned out to be 9.

`CC(=O)O[C@@]12CO[C@@H]1C[C@H](OCCO)[C@@]1(C)C(=O)[C@H](OCCO)C3=C(C)[C@@H](OC(=O)[C@H](O)[C@@H](NC(=O)OC(C)(C)C)c4ccccc4)C[C@@](O)([C@@H](OC(=O)c4ccccc4)[C@H]21)C3(C)C`: the GI50 in [1] is 118 nM; in [2], 7.41 nM; in assay [3], 56 nM; in [4], 128 nM; in [5] it was 6.65 nM; in [6], 413 nM. For the same compound, the GI50 in [8] came out at 296 nM; in assay [9], 7.41 nM; in assay [11], 92.5 nM; in assay [12], 6.76 nM; in [13] it was 472 nM; in [14], 470 nM. Besides, the 50% growth inhibitory concentration (GI50) in [15] came out at 113 nM; in [16], 38.5 nM.

Take `COCCO[C@H]1C(=O)[C@]2(C)[C@@H](OCCOC)C[C@H]3OC[C@@]3(OC(C)=O)[C@H]2[C@H](OC(=O)c2ccccc2)[C@]2(O)C[C@H](OC(=O)[C@H](O)[C@@H](NC(=O)OC(C)(C)C)c3ccccc3)C(C)=C1C2(C)C`: the 50% growth inhibitory concentration (GI50) in assay [1] worked out at 57.9 nM; in assay [2], 38.8 nM; in assay [3], 57.3 nM; in assay [4] it was 2 nM; in [5] it was 407 nM; in assay [6], 982 nM. For the same compound, the GI50 came out at 749 nM in assay [7]; 295 nM in assay [8]; 345 nM in assay [9]; 68.2 nM in [11]; 3.1 nM in assay [12]; 480 nM in [13]. The figures for the 50% growth inhibitory concentration (GI50) in assay [14], in assay [15] and in [16] were 936 nM, 227 nM and 6.73 nM, respectively.

For `CC(=O)O[C@@]12CO[C@@H]1C[C@H](OC(=O)C(C)(CO)CO)[C@@]1(C)C(=O)[C@H](OC(=O)C(C)(CO)CO)C3=C(C)[C@@H](OC(=O)[C@H](O)[C@@H](NC(=O)OC(C)(C)C)c4ccccc4)C[C@@](O)([C@@H](OC(=O)c4ccccc4)[C@H]21)C3(C)C`, the GI50 in [1] came out at 376 nM; in assay [2], 198 nM; in assay [3] it was 11.9 nM; in assay [4], 984 nM; in assay [5], 225 nM; in [6], 65.1 nM. The GI50 in assay [7] is 263 nM; in assay [8], 170 nM; in assay [9] it was 130 nM; in assay [11], 558 nM; in assay [12], 159 nM; in [13] it was 166 nM. For the same compound, the figures for the GI50 in [14], in assay [15] and in assay [16] were 554 nM, 104 nM and 1.25 nM, respectively.

Take `CC(=O)O[C@H]1C(=O)[C@@]2(C)[C@H]([C@H](OC(=O)c3ccccc3)[C@]3(O)C[C@H](OC(=O)[C@H](O)[C@@H](NC(=O)c4ccccc4)c4ccccc4)C(C)=C1C3(C)C)[C@]1(OC(C)=O)CO[C@@H]1C[C@@H]2O` [PACLITAXEL]: the GI50 in [2] was 2.39 nM; in assay [3], 1.79 nM; in [4] it was 3.6 nM; in assay [5], 3.21 nM; in assay [6] it was 5.57 nM; in assay [7], 2.23 nM. In addition, the GI50 in [8] was 2.41 nM; in assay [9] it was 1.29 nM; in assay [11] it was 3.09 nM; in assay [12], 18.7 nM; in assay [13] it was 3.89 nM; in [14], 7.01 nM. In addition, the GI50 in [15] was 207 nM; in [16], 2.35 nM.

In the case of `COCO[C@H]1C(=O)[C@]2(C)[C@@H](OCOC)C[C@H]3OC[C@@]3(OC(C)=O)[C@H]2[C@H](OC(=O)c2ccccc2)[C@]2(O)C[C@H](OC(=O)[C@H](O)[C@@H](NC(=O)OC(C)(C)C)c3ccccc3)C(C)=C1C2(C)C`, the GI50 in [1] is 1230 nM; in assay [2], 6.15 nM; in [3] it was 661 nM; in [4], 80.5 nM; in assay [5], 1.24 nM; in assay [6], 2.09 nM. For the same compound, the GI50 is 1.89 nM in [8]; 615 nM in assay [9]; 966 nM in assay [11]; 563 nM in assay [12]; 257 nM in assay [15]; 275 nM in assay [16]. Moreover, the GI50 entry in [17] and in assay [14] was “inactive” throughout.

For `CO[C@H]1C(=O)[C@]2(C)[C@@H](OC)C[C@H]3OC[C@@]3(OC(C)=O)[C@H]2[C@H](OC(=O)c2ccccc2)[C@]2(O)C[C@H](OC(=O)[C@H](O)[C@@H](NC(=O)OC(C)(C)C)c3ccccc3)C(C)=C1C2(C)C` [CABAZITAXEL], the GI50 came out at 4.74 nM in [1]; 0.539 nM in assay [2]; 467 nM in [4]; 1.8 nM in assay [5]; 1.43 nM in assay [6]; 1.28 nM in [8]. Moreover, the GI50 in assay [9] worked out at 1.19 nM; in assay [11], 0.355 nM; in assay [12], 1.48 nM; in [13], 1.41 nM; in assay [14], 4.19 nM; in assay [16] it was 1.48 nM.
